“And” between values parts separate entries of the source, which are not always exact repeats. Equal values may be shown once.
Test system: PPAR signaling pathway genes, maternal liver
Assay: Maternal liver (GD18) PPAR gene array, fold induction versus control; oral dosing GD14-18; rows per gene in dose order 1, 3, 10, 30, 62.5, 125, 250, 500 mg/kg/d
Assay type: in vivo, Sprague-Dawley rats
Experimental: A total of three blocks of 15 dams per block were dosed once daily from GD14–18 with either water vehicle (control) or HFPO-DA to evaluate fetal and maternal effects (Figure 1A). The first block of dams was dosed with control, 62.5, 125, 250, or 500mg/kg HFPO-DA ( n=3 dams for each). The second and third blocks of dams were dosed with control, 1, 3, 10, or 30mg/kg HFPO-DA ( n=3 per dose per block). Total sample sizes were n=9 for control, n=6 for 1, 3, 10, 30mg/kg , and n=3 for 62.5, 125, 250, and 500mg/kg HFPO-DA. In the first two blocks, spanning the entire dose range, we evaluated fetal testis testosterone production, fetal testis gene expression, fetal and maternal liver gene expression, fetal body weight, and maternal serum thyroid hormone and lipid concentrations. In the third block, encompassing the lower dose range utilized here, we collected fetal plasma for measuring HFPO-DA concentrations. Across all three blocks we evaluated maternal weight gain during dosing, reproductive output (number of fetuses and resorptions), maternal serum HFPO-DA concentration, and maternal liver weight at necropsy.
For the first two blocks, spanning the full dose range, late gestation (GD18) dams were euthanized by decapitation at ∼2h after the final oral dose [ ∼0830–1000 hours Eastern Standard Time (EST)]. Trunk blood was collected and serum isolated via centrifugation ( 10,000×g for 15 min at 4°C) in vacutainer tubes, transferred to 1.5-mL microcentrifuge tubes and stored at −80°C . Dam liver weight was recorded and a sample of liver tissue was collected into a polypropylene microcentrifuge tube containing 500μL TRIzol Reagent (Invitrogen) on ice. Fetuses were removed and two randomly selected fetuses per litter were weighed. Fetal testes were collected from all male pups with a single testis from the first three males used for determination of ex vivo testosterone production and the remaining testes were homogenized and preserved in TRIzol Reagent for gene expression analysis. The liver was collected from a single, randomly selected fetus per dam/litter for gene expression analysis and transferred to a polypropylene microcentrifuge tube containing 500μL TRIzol Reagent (Invitrogen) on ice. Both dam and fetal liver samples were individually homogenized using a Bullet Blender (Next Advance) with 1-mm zirconium oxide beads, transferred to clean tubes, and stored at −80°C prior to RNA extraction (see below). Ex vivo fetal testis testosterone production was measured as previously reported ([Wilson et al. 2004b]) except the radioimmunoassay (RIA) utilized here was supplied by ALPCO (Catalog No. 72-TESTO-CT2, ALPCO). Briefly, one testis was isolated from each of three separate male fetuses in each litter and incubated in a humidified atmosphere at 37°C for 3 h in 500μL of M-199 media (phenol red–free; Hazelton Biologics, Inc.) supplemented with 10% dextran-coated charcoal-stripped fetal bovine serum (Hyclone Laboratories) in 24-well plates under gentle agitation. After incubation, media were removed and stored in siliconized microcentrifuge tubes at −80°C until RIA analyses, which were performed according to manufacturer specifications.
Gene expression in fetal testes and fetal/maternal livers was assessed using reverse transcriptase real-time PCR of cDNA synthesized from RNA extracted from sample homogenates. RNA extraction was conducted according to TRIzol Reagent manufacturer specifications using chloroform and isopropanol. Following extraction, RNA was purified using the RNeasy Mini Kit (Catalog No. 74104; Qiagen). RNA concentration and purity (260:280 ratio ≥1.8 ) were determined with a NanoDrop 2000 spectrophotometer (Thermo Scientific). For the fetal testes, a 96-well gene array plate was previously custom designed to contain 89 target genes and 3 housekeeping genes, an intra-assay control, a genomic DNA control, a reverse transcriptase control, and a positive PCR control [see Table S1; SABioscience; ([Hannas et al. 2012])]. […]

For `O=C(O)C(F)(OC(F)(F)C(F)(F)C(F)(F)F)C(F)(F)F` (centres unmarked) [HFPO-DA, Hexafluoropropylene oxide dimer acid], which Acox3 (dose order) is on record?
Its Acox3 is 1.3 fold and 0.9 fold and 1.2 fold and 1.1 fold and 1.0 fold.

And the Acsl1 (dose order)?
The Acsl1 was 1.3 fold and 1.5 fold and 1.1 fold and 1.7 fold and 1.6 fold and 1.8 fold.

And the Acsl4 (dose order)?
Its Acsl4 is 1.0 fold and 0.7 fold and 0.9 fold and 1.3 fold and 1.2 fold.

And the Angptl4 (dose order)?
The Angptl4 was 2.3 fold and 3.4 fold and 2.1 fold and 3.6 fold and 3.0 fold and 2.9 fold and 2.5 fold.

And the Apoa1 (dose order)?
The Apoa1 was 0.9 fold and 1.0 fold and 0.7 fold.

What about the Apoe (dose order) of the same compound?
The Apoe was 1.2 fold and 0.8 fold and 0.9 fold and 0.7 fold.

What about the Cd36 (dose order) of the same compound?
Its Cd36 is 0.8 fold and 1.2 fold and 0.9 fold and 1.0 fold and 1.1 fold.

What about the Clu (dose order) of the same compound?
Its Clu is 1.1 fold and 1.4 fold and 0.8 fold and 1.3 fold and 1.2 fold and 1.5 fold and 1.6 fold.

And the Creb1 (dose order)?
Its Creb1 is 1.1 fold and 0.9 fold and 1.0 fold and 0.8 fold.

What about the Crebbp (dose order) of the same compound?
The Crebbp was 1.3 fold and 0.9 fold and 1.0 fold.

What about the Dgat1 (dose order) of the same compound?
The Dgat1 was 1.1 fold and 1.3 fold and 1.2 fold and 1.5 fold and 1.6 fold and 1.8 fold and 1.9 fold.

And the Ep300 (dose order)?
The Ep300 was 1.3 fold and 1.4 fold and 0.8 fold and 1.1 fold and 1.0 fold.

What about the Etfdh (dose order) of the same compound?
Its Etfdh is 1.2 fold and 1.6 fold and 1.4 fold and 1.5 fold.

What about the Fabp5 (dose order) of the same compound?
Its Fabp5 is 1.0 fold and 1.3 fold and 1.2 fold and 0.8 fold.

What about the Fabp7 (dose order) of the same compound?
Its Fabp7 is 2.0 fold and 1.1 fold and 1.9 fold and 1.8 fold and 1.3 fold and 1.7 fold.

And the Gk (dose order)?
The Gk was 1.2 fold and 1.1 fold and 1.3 fold and 1.4 fold and 0.8 fold.

And the Hif1a (dose order)?
Its Hif1a is 1.2 fold and 1.0 fold and 1.1 fold and 1.3 fold.

What about the Hspd1 (dose order) of the same compound?
Its Hspd1 is 1.1 fold and 1.2 fold and 1.3 fold and 1.9 fold and 1.8 fold and 2.2 fold and 2.1 fold.

What about the Ilk (dose order) of the same compound?
Its Ilk is 1.2 fold and 0.9 fold and 1.1 fold and 1.0 fold.

What about the Klf10 (dose order) of the same compound?
Its Klf10 is 1.8 fold and 2.0 fold and 1.5 fold and 2.5 fold and 2.3 fold and 2.4 fold.

What about the Lpin1 (dose order) of the same compound?
The Lpin1 was 1.2 fold and 1.4 fold and 0.8 fold and 1.1 fold and 1.0 fold and 0.9 fold.

And the Med1 (dose order)?
The Med1 was 1.2 fold and 1.3 fold and 0.7 fold and 1.0 fold and 0.8 fold and 0.9 fold and 1.1 fold.

And the Ncoa3 (dose order)?
Its Ncoa3 is 1.4 fold and 0.8 fold and 1.0 fold and 0.9 fold.

What about the Ncoa6 (dose order) of the same compound?
The Ncoa6 was 1.4 fold and 1.2 fold and 1.1 fold and 0.7 fold and 0.8 fold and 0.9 fold.

And the Nr1h3 (dose order)?
The Nr1h3 was 1.1 fold and 1.5 fold and 0.8 fold and 1.6 fold and 1.3 fold.

What about the Pdpk1 (dose order) of the same compound?
Its Pdpk1 is 0.9 fold and 1.0 fold and 0.8 fold and 1.1 fold.

And the Pltp (dose order)?
Its Pltp is 1.2 fold and 0.7 fold and 0.9 fold and 1.4 fold and 1.1 fold and 1.0 fold.

What about the Ppara (dose order) of the same compound?
Its Ppara is 0.8 fold and 0.7 fold and 0.6 fold and 1.0 fold and 0.9 fold and 1.1 fold.

And the Ppargc1b (dose order)?
Its Ppargc1b is 1.1 fold and 1.3 fold and 0.9 fold and 0.8 fold and 0.7 fold.

What about the Pprc1 (dose order) of the same compound?
Its Pprc1 is 1.2 fold and 1.0 fold and 1.4 fold and 1.5 fold.

And the Pten (dose order)?
Its Pten is 0.8 fold and 1.1 fold and 0.9 fold and 1.0 fold.

What about the Pyy (dose order) of the same compound?
The Pyy was 1.6 fold and 1.3 fold and 1.1 fold and 1.2 fold and 2.0 fold and 2.1 fold and 1.8 fold.

And the Rxra (dose order)?
Its Rxra is 1.2 fold and 1.4 fold and 0.7 fold and 1.0 fold and 1.1 fold.

And the Rxrb (dose order)?
The Rxrb was 1.5 fold and 1.4 fold and 0.9 fold and 1.1 fold and 0.8 fold and 1.0 fold.

And the Rxrg (dose order)?
The Rxrg was 1.5 fold and 1.6 fold and 1.1 fold and 1.7 fold and 1.3 fold.

What about the Sirt1 (dose order) of the same compound?
Its Sirt1 is 1.0 fold and 1.1 fold and 0.8 fold and 0.9 fold.

And the Slc27a1 (dose order)?
Its Slc27a1 is 1.5 fold and 1.6 fold and 0.9 fold and 1.4 fold and 1.1 fold and 1.0 fold and 1.3 fold.

What about the Slc27a2 (dose order) of the same compound?
Its Slc27a2 is 1.3 fold and 1.8 fold and 2.1 fold and 2.2 fold and 2.3 fold.

And the Slc27a4 (dose order)?
Its Slc27a4 is 1.3 fold and 1.5 fold and 0.8 fold and 1.0 fold and 1.1 fold and 0.9 fold.

What about the Tgs1 (dose order) of the same compound?
Its Tgs1 is 0.8 fold and 0.9 fold and 0.7 fold and 1.1 fold.

And the “number of up-regulated genes shared by maternal and fetal livers” value (rat, in vivo)?
Its value is 16 genes.

— PMC6768323, “Adverse Maternal, Fetal, and Postnatal Effects of Hexafluoropropylene Oxide Dimer Acid (GenX) from Oral Gestational Exposure in Sprague-Dawley Rats” (Environmental Health Perspectives, 2019)
